The source of these data is patent US12077503B2, “Substituted cyclic amides and their use as herbicides” (FMC CORPORATION, priority 2015, dated 2024).

Common to all, as to test: Test A preemergence
What all share (format): in vivo

The subject of experiment [1] is ragweed (common ragweed, Ambrosia elatior). Particulars: Ambrosia artemisiifolia, pre-emergence, 240 h; for pest or weed control at 125 g/ha: 125 g ai/ha; for pest or weed control at 500 g/ha: 500 g ai/ha. The gist of the method: (§1)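 In a loam soil and sand blend, planted seeds got a preemergence directed soil spray, and young plants at the one- to two-leaf stage, 2–10 cm high, got a postemergence application; ~10 d greenhouse hold; injury rated visually, 0 = none, 100 = complete control.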

The test system of the next experiment is Kochia (Kochia scoparia). To be noted: Bassia scoparia, pre-emergence, 240 h; for pest or weed control at 125 g/ha: 125 g ai/ha; for pest or weed control at 500 g/ha: 500 g ai/ha. A digest of the protocol: as §1
In experiment [2] the test system is barnyardgrass (Echinochloa crus-galli). Particulars: Echinochloa crus-galli, pre-emergence, 240 h; for pest or weed control at 125 g/ha: 125 g ai/ha; for pest or weed control at 500 g/ha: 500 g ai/ha. A digest of the protocol:
as §1

Experiment [3] concerns pigweed (Amaranthus retroflexus). Particulars: Amaranthus retroflexus, pre-emergence, 240 h; for pest or weed control at 125 g/ha: 125 g ai/ha; for pest or weed control at 500 g/ha: 500 g ai/ha.
Experiment [4] concerns ryegrass, Italian (Italian ryegrass, Lolium multiflorum). Particulars: Lolium multiflorum, pre-emergence, 240 h; for pest or weed control at 125 g/ha: 125 g ai/ha; for pest or weed control at 500 g/ha: 500 g ai/ha. A digest of the protocol: as §1
Setting [5] is: preemergence, 0 to 100 scale where 0 is no effect and 100 is complete control, read-out: Ragweed plant response rating.
Where [6] appears, read: Preemergence, visual injury vs untreated controls after approximately 10 d, read-out: Ragweed plant response rating (0 to 100 scale where 0 is no effect and 100 is complete control).
Setting [7] is: preemergence, 0 to 100 scale where 0 is no effect and 100 is complete control, read-out: Kochia plant response rating.
The mark [8] stands for this setting: Preemergence, visual injury vs untreated controls after approximately 10 d, read-out: Kochia plant response rating (0 to 100 scale where 0 is no effect and 100 is complete control).
Setting [9] is: preemergence, 0 to 100 scale where 0 is no effect and 100 is complete control, read-out: Barnyardgrass plant response rating.
Setting [10] is: Preemergence, visual injury vs untreated controls after approximately 10 d, read-out: Barnyardgrass plant response rating (0 to 100 scale where 0 is no effect and 100 is complete control).
Where [11] appears, read: preemergence, 0 to 100 scale where 0 is no effect and 100 is complete control, read-out: Pigweed plant response rating.
Setting [12] is: Preemergence, visual injury vs untreated controls after approximately 10 d, read-out: Pigweed plant response rating (0 to 100 scale where 0 is no effect and 100 is complete control).
Setting [13] is: preemergence, 0 to 100 scale where 0 is no effect and 100 is complete control, read-out: Ryegrass, Italian plant response rating.
Setting [14] is: Preemergence, visual injury vs untreated controls after approximately 10 d, read-out: Ryegrass, Italian plant response rating (0 to 100 scale where 0 is no effect and 100 is complete control).
Where [15] appears, read: preemergence, 0 to 100 scale where 0 is no effect and 100 is complete control, approx. 10 d, read-out: Ragweed plant response rating.
Where [16] appears, read: preemergence, 0 to 100 scale where 0 is no effect and 100 is complete control, approx. 10 d, read-out: Kochia plant response rating.
Where [17] appears, read: preemergence, 0 to 100 scale where 0 is no effect and 100 is complete control, approx. 10 d, read-out: Barnyardgrass plant response rating.
[18] abbreviates: preemergence, visual injury rating about 10 d after treatment, 0 to 100 scale (0 no effect, 100 complete control), read-out: Barnyardgrass plant response rating.
Where [19] appears, read: preemergence, 0 to 100 scale where 0 is no effect and 100 is complete control, approx. 10 d, read-out: Pigweed plant response rating.
Setting [20] is: preemergence, 0 to 100 scale where 0 is no effect and 100 is complete control, approx. 10 d, read-out: Ryegrass, Italian plant response rating.

Molecules are shown by their SMILES. Where two headings read alike, the source gives them in different places.

Turning to `CN1CC[C@H](c2cccc(C(F)(F)F)c2)[C@@H](C(=O)Nc2ccccc2S(C)(=O)=O)C1=O` [Compound 920], the pest or weed control at 125 g/ha was found to be 0% in experiment [1] (setting [5]); 0% with Kochia (Kochia scoparia) (setting [7]); 70% in experiment [2] (setting [9]); 0% in experiment [3] (setting [11]); 0% in experiment [4] (setting [13]). For the same molecule, the pest or weed control at 500 g/ha in experiment [1] (setting [6]) stood at 0%; with Kochia (Kochia scoparia) (setting [8]) it was 0%; in experiment [2] (setting [10]), 90%; in experiment [3] (setting [12]), 0%; in experiment [4] (setting [14]) it was 0%.

Take `O=C1NC[C@H](c2cc(C(F)F)cs2)[C@H]1C(=O)Nc1ccccc1F` [Compound 1116]: the pest or weed control at 125 g/ha came out at 0% in experiment [1] (setting [15]); 0% in the experiment with Kochia (Kochia scoparia) (setting [16]); 90% in experiment [2] (setting [17]); 0% in experiment [3] (setting [19]); 0% in experiment [4] (setting [20]). In addition, the pest or weed control at 500 g/ha in experiment [1] (setting [5]) was 20%; with Kochia (Kochia scoparia) (setting [7]), 30%; in experiment [2] (setting [18]), 90%; in experiment [3] (setting [11]), 20%; in experiment [4] (setting [13]), 20%.

As to `CCOc1ccc([C@H]2CNC(=O)[C@@H]2C(=O)Nc2ccc(F)cc2F)cc1` [Compound 908], the pest or weed control at 125 g/ha (in experiment [1] (setting [5]); in the experiment on Kochia (Kochia scoparia) (setting [7]); in experiment [2] (setting [9]); in experiment [3] (setting [11]); in experiment [4] (setting [13])) was 0% in each case. The pest or weed control at 500 g/ha came out at 0% in experiment [1] (setting [6]); 0% in the experiment on Kochia (Kochia scoparia) (setting [8]); 50% in experiment [2] (setting [10]); 0% in experiment [3] (setting [12]); 0% in experiment [4] (setting [14]).

As to `Cc1cc(F)cc([C@H]2CNC(=O)[C@@H]2C(=O)Nc2ccc(F)c(F)c2F)c1` [Compound 848], the pest or weed control at 125 g/ha in experiment [1] (setting [5]) is 0%; in the experiment on Kochia (Kochia scoparia) (setting [7]), 40%; in experiment [2] (setting [9]), 90%; in experiment [3] (setting [11]), 40%; in experiment [4] (setting [13]), 40%. In addition, the pest or weed control at 500 g/ha in experiment [1] (setting [6]) worked out at 30%; with Kochia (Kochia scoparia) (setting [8]), 70%; in experiment [2] (setting [10]) it was 90%; in experiment [3] (setting [12]), 50%; in experiment [4] (setting [14]), 50%.

Consider `Cc1cc(F)cc([C@H]2CN(C)C(=O)[C@@H]2C(=O)Nc2cccc(F)c2F)c1` [Compound 849], for which the pest or weed control at 125 g/ha in experiment [1] (setting [5]) was 80%; in the experiment with Kochia (Kochia scoparia) (setting [7]) it was 80%; in experiment [2] (setting [9]), 90%; in experiment [3] (setting [11]) it was 40%; in experiment [4] (setting [13]), 80%. The pest or weed control at 500 g/ha in experiment [1] (setting [6]) stood at 90%; with Kochia (Kochia scoparia) (setting [8]), 80%; in experiment [2] (setting [10]), 90%; in experiment [3] (setting [12]), 50%; in experiment [4] (setting [14]), 90%.

`O=C1NC[C@H](c2cc(C(F)F)cs2)[C@H]1C(=O)Nc1cccc(F)c1F` [Compound 1117]: the pest or weed control at 125 g/ha in experiment [1] (setting [15]) stood at 20%; in the experiment on Kochia (Kochia scoparia) (setting [16]), 40%; in experiment [2] (setting [17]), 90%; in experiment [3] (setting [19]) it was 0%; in experiment [4] (setting [20]), 0%. Also, the pest or weed control at 500 g/ha in experiment [1] (setting [5]) came to 70%; with Kochia (Kochia scoparia) (setting [7]) it was 70%; in experiment [2] (setting [18]), 90%; in experiment [3] (setting [11]) it was 0%; in experiment [4] (setting [13]), 60%.

As for `CC(C)Oc1ccc([C@H]2CNC(=O)[C@@H]2C(=O)Nc2ccc(F)cc2F)cc1` [Compound 1137], the pest or weed control at 125 g/ha (in experiment [1] (setting [15]); in the experiment with Kochia (Kochia scoparia) (setting [16]); in experiment [2] (setting [17]); in experiment [3] (setting [19]); in experiment [4] (setting [20])) was 0% throughout. Besides, the pest or weed control at 500 g/ha (in experiment [1] (setting [5]); in the experiment with Kochia (Kochia scoparia) (setting [7]); in experiment [2] (setting [9]); in experiment [3] (setting [11]); in experiment [4] (setting [13])) was 0% in each case.

For the molecule `CN1C[C@H](c2cc(F)c(C(F)(F)F)c(F)c2)[C@@H](C(=O)Nc2ccc(F)cc2F)C1=O` [Compound 901], the pest or weed control at 125 g/ha in experiment [1] (setting [5]) was determined as 0%; in the experiment on Kochia (Kochia scoparia) (setting [7]) it was 80%; in experiment [2] (setting [9]), 90%; in experiment [3] (setting [11]), 30%; in experiment [4] (setting [13]), 20%. Moreover, the pest or weed control at 500 g/ha in experiment [1] (setting [6]) is 0%; in the experiment on Kochia (Kochia scoparia) (setting [8]), 80%; in experiment [2] (setting [10]) it was 90%; in experiment [3] (setting [12]), 60%; in experiment [4] (setting [14]) it was 50%.

For `CSc1ccccc1NC(=O)[C@H]1C(=O)NC[C@@H]1c1ccc(C)c(C)c1` [Compound 1036], the pest or weed control at 125 g/ha was found to be 0% in experiment [1] (Preemergence, visual injury rating after approximately 10 d, read-out: Ragweed plant response rating (0 to 100 scale, 0 is no effect, 100 is complete control)); 70% with Kochia (Kochia scoparia) (Preemergence, visual injury rating after approximately 10 d, read-out: Kochia plant response rating (0 to 100 scale, 0 is no effect, 100 is complete control)); 90% in experiment [2] (Preemergence, visual injury rating after approximately 10 d, read-out: Barnyardgrass plant response rating (0 to 100 scale, 0 is no effect, 100 is complete control)); 0% in experiment [3] (Preemergence, visual injury rating after approximately 10 d, read-out: Pigweed plant response rating (0 to 100 scale, 0 is no effect, 100 is complete control)); 20% in experiment [4] (Preemergence, visual injury rating after approximately 10 d, read-out: Ryegrass, Italian plant response rating (0 to 100 scale, 0 is no effect, 100 is complete control)). Besides, the pest or weed control at 500 g/ha in experiment [1] (preemergence, visual injury rating about 10 d after treatment, 0 to 100 scale (0 no effect, 100 complete control), read-out: Ragweed plant response rating) was found to be 50%; with Kochia (Kochia scoparia) (preemergence, visual injury rating about 10 d after treatment, 0 to 100 scale (0 no effect, 100 complete control), read-out: Kochia plant response rating) it was 90%; in experiment [2] (setting [18]), 90%; in experiment [3] (preemergence, visual injury rating about 10 d after treatment, 0 to 100 scale (0 no effect, 100 complete control), read-out: Pigweed plant response rating), 0%; in experiment [4] (preemergence, visual injury rating about 10 d after treatment, 0 to 100 scale (0 no effect, 100 complete control), read-out: Ryegrass, Italian plant response rating) it was 20%.
